Test results as given in patent US7192763B2, “Streptomyces anulatus microorganism and a process for producing the substance GM-95” (Sosei Co., Ltd., priority 2001, dated 2007).

Key:
[1] = tested on: OVCAR-3 (human ovarian cancer); assay: Tumor cell growth inhibition (crystal violet), OVCAR-3; format: cell-based; conditions: 72 hours, read-out: Concentrations for 50% growth inhibition of various tumor cells (IC50)
Experimental: (§1) Tumor cells described in Table 5 were suspended in RPMI1640 medium containing 10% fetal calf serum, plated into culture plates (38 mm) at the density of in 2×10^3 cells each, and cultured in 37° C., 5% CO2 incubator overnight. Subsequently, experimental agents (the compound of the invention and 5-fluorouracil) diluted to various concentrations using RPMI1640 medium containing 10% fetal calf serum were added to each plate, and further cultured for 72 hours. After the cell culture was completed, those cells were fixed with 25% glutalaldehyde for 15 minutes and washed with water three times. After that, the cells were stained with 0.05% crystal violet diluted in 20% methanol aqueous solution, washed with water three times and then dried. The crystal violet were extracted with 100 μl of 0.05M sodium dihydrogenphosphate/ethanol (1/1(v/v)), their absorbance at 540 nm were determined by an automatic spectroscope. “IC50” was defined as the concentration required for a 50% reduction in growth compared to the control absorbance.

[2] = tested on: PC-3 (human prostate cancer); assay: Tumor cell growth inhibition (crystal violet), PC-3; format: cell-based; conditions: 72 hours, read-out: Concentrations for 50% growth inhibition of various tumor cells (IC50)
Experimental: as §1

[3] = tested on: SKOV-3 (human ovarian cancer); assay: Tumor cell growth inhibition (crystal violet), SKOV-3; format: cell-based; conditions: SK-OV-3, 72 hours, read-out: Concentrations for 50% growth inhibition of various tumor cells (IC50)
Experimental: as §1

[4] = tested on: MCF-7 (human breast cancer); assay: Tumor cell growth inhibition (crystal violet), MCF-7; format: cell-based; conditions: MCF7, 72 hours, read-out: Concentrations for 50% growth inhibition of various tumor cells (IC50)
Experimental: as §1

[5] = tested on: ZR75-1 (human breast cancer); assay: Tumor cell growth inhibition (crystal violet), ZR75-1; format: cell-based; conditions: ZR-75-1, 72 hours, read-out: Concentrations for 50% growth inhibition of various tumor cells (IC50)
Experimental: as §1

[6] = tested on: PAN-3 (human pancreatic cancer); assay: Tumor cell growth inhibition (crystal violet), PAN-3; format: cell-based; conditions: 72 hours, read-out: Concentrations for 50% growth inhibition of various tumor cells (IC50)
Experimental: as §1

[7] = tested on: KM12C-SM (human colon cancer); assay: Tumor cell growth inhibition (crystal violet), KM12C-SM; format: cell-based; conditions: 72 hours, read-out: Concentrations for 50% growth inhibition of various tumor cells (IC50)
Experimental: as §1

[8] = tested on: A375SM (human melanoma); assay: Tumor cell growth inhibition (crystal violet), A375SM; format: cell-based; conditions: A375-SM, 72 hours, read-out: Concentrations for 50% growth inhibition of various tumor cells (IC50)
Experimental: as §1

[9] = tested on: TMK-1 (human gastric cancer); assay: Tumor cell growth inhibition (crystal violet), TMK-1; format: cell-based; conditions: 72 hours, read-out: Concentrations for 50% growth inhibition of various tumor cells (IC50)
Experimental: as §1

[10] = tested on: HT-29 (human colon cancer); assay: Tumor cell growth inhibition (crystal violet), HT-29; format: cell-based; conditions: 72 hours, read-out: Concentrations for 50% growth inhibition of various tumor cells (IC50)
Experimental: as §1

[11] = tested on: DLD-1 (human colon cancer); assay: Tumor cell growth inhibition (crystal violet), DLD-1; format: cell-based; conditions: 72 hours, read-out: Concentrations for 50% growth inhibition of various tumor cells (IC50)
Experimental: as §1

[12] = tested on: Renca (mouse renal cancer); assay: Tumor cell growth inhibition (crystal violet), Renca; format: cell-based; conditions: 72 hours, read-out: Concentrations for 50% growth inhibition of various tumor cells (IC50)
Experimental: as §1

[13] = biological target: T1, telomerase (Homo sapiens, UniProt O14746); assay: Telomerase-inhibiting activity using cell extracts containing telomerase; format: biochemical; conditions: read-out: concentration for inhibiting telomerase activity by 50% (IC50) in cell extracts
T1 construct: using cell extracts containing telomerase according to the conventional manner; endogenous in cells
T1 sequence (O14746 whole entry): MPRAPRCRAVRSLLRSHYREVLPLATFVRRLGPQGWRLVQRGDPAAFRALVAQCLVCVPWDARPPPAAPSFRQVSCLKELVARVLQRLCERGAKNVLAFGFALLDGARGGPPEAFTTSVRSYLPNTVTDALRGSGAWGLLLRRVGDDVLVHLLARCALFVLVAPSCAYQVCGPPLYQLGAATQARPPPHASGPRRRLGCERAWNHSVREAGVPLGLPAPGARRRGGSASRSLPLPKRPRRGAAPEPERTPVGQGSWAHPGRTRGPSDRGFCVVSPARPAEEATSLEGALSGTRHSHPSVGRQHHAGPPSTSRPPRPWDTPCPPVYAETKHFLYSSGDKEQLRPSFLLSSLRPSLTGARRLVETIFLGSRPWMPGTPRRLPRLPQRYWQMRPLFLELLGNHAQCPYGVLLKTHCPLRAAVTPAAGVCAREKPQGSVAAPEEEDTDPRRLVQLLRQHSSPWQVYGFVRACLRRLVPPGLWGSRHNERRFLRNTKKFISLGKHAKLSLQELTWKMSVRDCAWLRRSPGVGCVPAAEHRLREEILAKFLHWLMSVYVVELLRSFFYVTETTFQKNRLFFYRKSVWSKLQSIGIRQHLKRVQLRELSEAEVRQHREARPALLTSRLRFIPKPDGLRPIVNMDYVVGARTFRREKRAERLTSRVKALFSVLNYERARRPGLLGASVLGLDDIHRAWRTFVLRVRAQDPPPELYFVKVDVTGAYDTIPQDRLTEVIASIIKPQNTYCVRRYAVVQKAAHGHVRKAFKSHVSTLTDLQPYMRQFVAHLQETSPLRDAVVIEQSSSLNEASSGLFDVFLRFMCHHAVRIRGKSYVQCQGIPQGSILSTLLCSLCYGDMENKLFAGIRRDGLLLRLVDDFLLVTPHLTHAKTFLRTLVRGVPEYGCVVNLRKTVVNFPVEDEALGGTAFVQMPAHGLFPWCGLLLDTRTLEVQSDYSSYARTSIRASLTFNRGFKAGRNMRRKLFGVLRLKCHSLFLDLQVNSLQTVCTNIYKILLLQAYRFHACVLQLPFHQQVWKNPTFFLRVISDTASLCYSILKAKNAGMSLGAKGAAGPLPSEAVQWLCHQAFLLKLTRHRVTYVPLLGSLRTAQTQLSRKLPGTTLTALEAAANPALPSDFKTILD
Excerpt: The compound of the invention was subjected to the examination of telomerase-inhibiting activity using cell extracts containing telomerase according to the conventional manner, to provide the concentration for inhibiting telomerase activity by 50% (IC50) in cell extracts.

[14] = Solubilities in solvents; format: physicochemical
Excerpt: Insoluble in water and in acetone.
Soluble in a mixture of chloroform:methanol=1:1 • 8) Color of the substance: white yellowish powders • 9) Nuclear magnetic resonance spectrum

IC50 [1] | IC50 [2] | IC50 [3] | IC50 [4] | IC50 [5] | IC50 [6] | IC50 [7] | IC50 [8] | IC50 [9] | IC50 [10] | IC50 [11] | IC50 [12] | IC50 [13] | Solubility in acetone ([14]; acetone) | Solubility in a mixture of chloroform:methanol=1:1 ([14]; chloroform:methanol=1:1) | Solubility in water ([14]; water) | SMILES
0.37 µM | 5.7 µM | 7.84 µM | 1.12 µM | 3.63 µM | 8.82 µM | 1.32 µM | 2.89 µM | 0.33 µM | 2.1 µM | 5.5 µM | 0.58 µM |  |  |  |  | O=c1[nH]cc(F)c(=O)[nH]1 [5-fluorouracil, reference compound]
3.41 µM | 8.82 µM | 3.73 µM | 7.73 µM | 4.04 µM | 7.09 µM | 3.74 µM | 7.04 µM | 3.75 µM | 7.1 µM | 6.2 µM | 0.97 µM | 0.05 µM | Insoluble | Soluble | Insoluble | Cc1oc2nc1-c1nc(co1)-c1nc(co1)-c1nc(co1)-c1nc(co1)-c1nc(co1)C1=NC(CS1)c1nc-2c(C)o1 (stereo not shown) [Substance GM-95]
